These results are taken from patent US9416095B2, “Salts, crystals, complexes, and derivatives of threonine diacetic acid, a process to prepare threonine diacetic acid, and the use thereof” (Akzo Nobel Chemicals International B.V., priority 2013, dated 2016).

Assay type in all cases: physicochemical
A short description of data set [1]: Dissolving insoluble calcium salts (CaCO3 stirred with THDA.Na3 solution, calcium in filtrate by ICP). Here is the method:
A mixture of CaCO3 (1.26 g, […]), 37.8 wt % THDA.Na3 in water (15 g, 18.8 mM), and water (45 g) was vigorously stirred for 6 h. The experiment was performed at room temperature and at 50° C. Samples (1 ml) were taken from the mixture every 0.5 h and filtered through a 0.45 μm filter. The concentration of calcium in the filtered samples was determined using the ICP method.

Data set [2] can be described thus: Cyclisation to the 6-oxomorpholine ring-closed form in DMSO-d6/TFA, monitored by 1H NMR. The settings on record: 30% aqueous disodium salt in DMSO-d6/TFA 80:20 w/w, ambient temperature. How it is done:
A 30% aqueous solution of disodium threonine diacetate (129 mg) was mixed well with a DMSO-d6/TFA solution (2761 mg, 80:20 w/w) and changes in the obtained mixture were monitored by ^1H NMR at ambient temperature. The steady state was reached after 40 minutes with a conversion of 90% of THDA to cyclic-THDA.
A 30% aqueous solution of disodium serine diacetate (136 mg) was mixed well with a DMSO-d6/TFA solution (2911 mg, 80:20 w/w) and changes in the obtained mixture were monitored by ^1H NMR at ambient temperature. The steady state was reached after 100 minutes with a conversion of 43% of SerDA to cyclic-SerDA. The above experiments support that THDA can be used in applications that relate to dissolving carbonate or sequestering iron, such as use in the oil field (e.g. dissolving CaCO3 and controlling iron in subterranean treatment), use in a feed, food or micronutrient composition (e.g. complexing iron and calcium for delivery to growing substrates), use in detergents and water treatments (e.g. sequestering calcium from water to soften water and sequestering iron present in stains), and many more uses.

A short description of data set [3]: Potentiometric titration with FeCl3, iron total sequestering value (Fe-TSV). An excerpt: Potentiometric titration of THDA with FeCl3 at pH 3-4 and 11.5 gave the iron total sequestering values (Fe-TSV) of 37.8 and 27.8%, respectively. […] All Fe(III) is bound by THDA at pH 3-4.

For the compound `C[C@@H](O)[C@@H](C(=O)O)N(CC(=O)O)CC(=O)O.[Na+].[Na+].[Na+]` [THDA.Na3, Trisodium Threonine Diacetate], the “speed of CaCO3 dissolution at 50° C. versus room temperature” value in data set [1] (50° C.) is on record as “noticeably faster”. Also, in data set [1] (CaCO3 12.6 mM, THDA.Na3 18.8 mM in water, stirred 6 h, room temperature and 50° C.), the “dissolution of CaCO3” value is “significant amount”.

`O=C(O)CN(CC(=O)O)[C@@H](CO)C(=O)O` [SerDA, serine-N,N-diacetic acid, reference compound]: in data set [2], the “conversion to cyclic form at steady state” value is 43% and the “time to reach steady state of cyclisation” value turned out to be 100 min.

`C[C@@H](O)[C@@H](C(=O)O)N(CC(=O)O)CC(=O)O` [THDA, threonine-N,N-diacetic acid]: the “iron total sequestering value (Fe-TSV)” value in data set [3] (pH 3-4) stood at 37.8%. Moreover, the “iron total sequestering value (Fe-TSV)” value in data set [3] (pH 11.5) was 27.8%. For the same compound, in data set [2], the “conversion to cyclic form at steady state” value is on record as 90% and the “time to reach steady state of cyclisation” value turned out to be 40 min.
